Laboratory results from the NIST ThermoML archive (doi:10.1016/j.jct.2014.07.017).

Test: mn = molality of the nth substance listed, in mol/kg
Conditions: 298.15 K, 100 kPa, Liquid, Direct current cell with electrodes

CCNCC(O)c1cccc(O)c1.Cl (stereo unspecified) [1-(3-hydroxyphenyl)-2-ethylaminoethanol hydrochloride] + O
Conditions | electrical conductivity [S/m]
m1 = 0.01028 | 0.03
m1 = 0.01115 | 0.033
m1 = 0.01209 | 0.037
m1 = 0.01313 | 0.041
m1 = 0.01425 | 0.045
m1 = 0.01546 | 0.051
m1 = 0.01677 | 0.056
m1 = 0.0182 | 0.061
m1 = 0.01896 | 0.065
m1 = 0.01974 | 0.068
m1 = 0.02057 | 0.072
m1 = 0.02143 | 0.075
m1 = 0.02232 | 0.078
m1 = 0.02325 | 0.082
m1 = 0.02422 | 0.087
m1 = 0.02523 | 0.09
m1 = 0.02628 | 0.095
m1 = 0.02737 | 0.101
m1 = 0.02851 | 0.105
m1 = 0.0297 | 0.109
m1 = 0.03094 | 0.115
m1 = 0.03222 | 0.12
m1 = 0.03357 | 0.126
m1 = 0.03497 | 0.132
m1 = 0.03643 | 0.138
m1 = 0.03795 | 0.145
m1 = 0.03953 | 0.15
m1 = 0.04117 | 0.155
m1 = 0.04289 | 0.159
m1 = 0.04468 | 0.165
m1 = 0.04654 | 0.171
m1 = 0.04848 | 0.177
m1 = 0.0505 | 0.185
m1 = 0.0526 | 0.191
m1 = 0.05479 | 0.195
m1 = 0.05708 | 0.203
m1 = 0.05945 | 0.208
m1 = 0.06193 | 0.216
m1 = 0.06451 | 0.224
m1 = 0.0672 | 0.232
m1 = 0.07 | 0.241
